# Reference: patent US10519140B2, “Indolin-2-one derivatives” (Hoffmann-La Roche Inc., priority 2015, dated 2019)
# Molecular target: T1, mouse ENT-1 transporter (Mus musculus, UniProt Q9JIM1)
# T1 construct: expressed in transfected cells
# T1 sequence (Q9JIM1 1-460): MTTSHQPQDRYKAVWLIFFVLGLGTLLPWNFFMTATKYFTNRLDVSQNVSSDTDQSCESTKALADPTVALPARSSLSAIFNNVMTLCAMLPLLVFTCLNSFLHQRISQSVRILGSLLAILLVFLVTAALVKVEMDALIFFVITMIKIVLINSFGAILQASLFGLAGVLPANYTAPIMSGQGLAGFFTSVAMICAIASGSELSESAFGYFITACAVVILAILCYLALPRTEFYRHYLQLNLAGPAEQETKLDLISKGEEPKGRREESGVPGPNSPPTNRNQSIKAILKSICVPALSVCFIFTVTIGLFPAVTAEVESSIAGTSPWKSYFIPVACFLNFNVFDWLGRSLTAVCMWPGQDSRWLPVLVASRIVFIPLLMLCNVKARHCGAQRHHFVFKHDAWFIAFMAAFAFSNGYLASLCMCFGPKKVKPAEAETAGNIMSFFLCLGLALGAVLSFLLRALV
# Experiment: Adenosine transport activity (ENT1, [3H]-adenosine uptake inhibition)
# Assay type: cell-based
# Settings: stable cells expressing mouse ENT-1; [2,8-3H]-adenosine 6 nM, 20 min
# Procedure: To measure adenosine transport activity of ENT-1 mammalian cells, stable cells expressing the mouse ENT-1 transporter were plated on day 1 in 96-well culture plates at the density of 60,000 cells/well, in complete DMEM/F12 medium supplemented with glutamax, 10% FBS and 10 μg/ml puromycin. On day 2, the medium was aspirated and the cells were washed twice with uptake buffer (10 mM Hepes-Tris, pH 7.4 containing 150 mM NaCl, 1 mM CaCl2, 2.5 mM KCl, 2.5 mM MgSO4, 10 mM D-glucose) (UB). For inhibition experiments, cells were then incubated at RT with various concentrations of compounds with 1% DMSO final. Non-specific uptake was defined in the presence of 10 μM S-(4-Nitrobenzyl)-6-thioinosine (NBTI, Sigma Cat #N2255). A solution containing [2,8-^3H]-adenosine 6 nM (40 Ci/mmol, American Radiolabeled chemicals Inc, Cat #ART 0287A) was then immediately added to the wells. The plates were then incubated for 20 min with gentle shaking and the reaction was stopped by aspiration of the mixture and washing (three times) with ice-cold UB. The cells were lysed by the addition of scintillation liquid, shaken 3 hours and the radioactivity in the cells was estimated using a microplates scintillation counter (TopCount NXT, Packard).
row,Compound,IC50
1,"Cc1ncc(-c2ccc3c(c2)N(c2cncc(N)c2)C(=O)C3(C)C)cn1 [Example 25, 1-(5-Aminopyridin-3-yl)-3,3-dimethyl-6-(2-methylpyrimidin-5-yl)indolin-2-one]",466 nM
2,"Cc1ncc(-c2ccc3c(c2)N(c2ccc4c(n2)NC(=O)C4(C)C)C(=O)C3(C)C)cn1 [Example 37, 6-(3,3-Dimethyl-6-(2-methylpyrimidin-5-yl)-2-oxoindolin-1-yl)-3,3-dimethyl-1H-pyrrolo[2,3-b]pyridin-2(3H)-one]",6.7 nM
3,"COc1ccc(CN2C(=O)C(C)(C)c3ccc(N4C(=O)C(C)(C)c5ccc(-c6cnc(C)nc6)cc54)cc32)cc1 [Example 42, 1′-(4-Methoxybenzyl)-3,3,3′,3′-tetramethyl-6-(2-methylpyrimidin-5-yl)-[1,6′-biindoline]-2,2′-dione]",193 nM
4,"Cc1ncc(-c2ccc3c(c2)N(c2ccc4c(c2)N(C2COC2)C(=O)C4(C)C)C(=O)C3(C)C)cn1 [Example 59, 3,3,3′,3′-Tetramethyl-6-(2-methylpyrimidin-5-yl)-1′-(oxetan-3-yl)-[1,6′-biindoline]-2,2′-dione]",203 nM
5,"Cc1ncc(-c2ccc3c(c2)N(c2cncc(N4C[C@H]5C[C@@H](C4)O5)n2)C(=O)C3(C)C)cn1 [Example 16, 1-(6-((1R,5S)-6-Oxa-3-azabicyclo[3.1.1]heptan-3-yl)pyrazin-2-yl)-3,3-dimethyl-6-(2-methylpyrimidin-5-yl)indolin-2-one]",88.7 nM
6,"CC(=O)Nc1nc(N2C(=O)C(C)(C)c3ccc(-c4cnc(C)nc4)cc32)ccc1C [Example 30, N-(6-(3,3-Dimethyl-6-(2-methylpyrimidin-5-yl)-2-oxoindolin-1-yl)-3-methylpyridin-2-yl)acetamide]",346 nM
7,"Cc1ncc(-c2ccc3c(c2)N(c2ccc4oc(C)nc4n2)C(=O)C3(C)C)cn1 [Example 45, 3,3-Dimethyl-1-(2-methyloxazolo[4,5-b]pyridin-5-yl)-6-(2-methylpyrimidin-5-yl)indolin-2-one]",593 nM
8,"Cc1ncc(-c2ccc3c(c2)N(c2cncc(N4CC(C)(C)OC4=O)n2)C(=O)C3(C)C)cn1 [Example 56, 3-(6-(3,3-Dimethyl-6-(2-methylpyrimidin-5-yl)-2-oxoindolin-1-yl)pyrazin-2-yl)-5,5-dimethyloxazolidin-2-one]",202 nM
9,"Cc1ncc(-c2ccc3c(c2)N(c2cncc(N4C(=O)O[C@H]5CC[C@H]54)n2)C(=O)C3(C)C)cn1 (racemic) [Example 55, rac-(1S,5R)-4-(6-(3,3-Dimethyl-6-(2-methylpyrimidin-5-yl)-2-oxoindolin-1-yl)pyrazin-2-yl)-2-oxa-4-azabicyclo[3.2.0]heptan-3-one]",24.8 nM
10,"Cc1ncc(-c2ccc3c(c2)N(c2cncc(N)n2)C(=O)C3(C)C)cn1 [Example 2, 1-(6-Aminopyrazin-2-yl)-3,3-dimethyl-6-(2-methylpyrimidin-5-yl)indolin-2-one]",163 nM
11,"Cc1ncc(-c2ccc3c(c2)N(c2cnc(NCCO)cn2)C(=O)C3(C)C)cn1 [Example 52, 1-(5-((2-Hydroxyethyl)amino)pyrazin-2-yl)-3,3-dimethyl-6-(2-methylpyrimidin-5-yl)indolin-2-one]",239 nM
12,"Cc1ncc(-c2ccc3c(c2)N(c2cc4c(cn2)C(C)(C)C(=O)N4C2CC2)C(=O)C3(C)C)cn1 [Example 40, 1-Cyclopropyl-6-(3,3-dimethyl-6-(2-methylpyrimidin-5-yl)-2-oxoindolin-1-yl)-3,3-dimethyl-1H-pyrrolo [3,2-c]pyridin-2(3H)-one]",493 nM
13,"Cc1ncc(-c2ccc3c(c2)N(c2ccc4cnn(C)c4c2)C(=O)C3(C)C)cn1 [Example 60, 3,3-Dimethyl-1-(1-methyl-1H-indazol-6-yl)-6-(2-methylpyrimidin-5-yl)indolin-2-one]",37.7 nM
14,"Cc1ncc(-c2ccc3c(c2)N(c2cncc(N4CCOCC4)c2)C(=O)C3(C)C)cn1 [Example 26, 3,3-Dimethyl-6-(2-methylpyrimidin-5-yl)-1-(5-morpholinopyridin-3-yl)indolin-2-one]",17.6 nM
15,"Cc1ncc(-c2ccc3c(c2)N(c2cncc(N4CCCC4)n2)C(=O)C3(C)C)cn1 [Example 4, 3,3-Dimethyl-6-(2-methylpyrimidin-5-yl)-1-(6-(pyrrolidin-1-yl)pyrazin-2-yl)indolin-2-one]",253 nM
16,"Cc1ncc(-c2ccc3c(c2)N(c2cccc(N4CCOCC4)n2)C(=O)C3(C)C)cn1 [Example 27, 3,3-Dimethyl-6-(2-methylpyrimidin-5-yl)-1-(6-morpholinopyridin-2-yl)indolin-2-one]",57.5 nM

row,Compound,IC50
1,"COCCN(C)c1cncc(N2C(=O)C(C)(C)c3ccc(-c4cnc(C)nc4)cc32)n1 [Example 12, 1-(6-((2-Methoxyethyl)(methyl)amino)pyrazin-2-yl)-3,3-dimethyl-6-(2-methylpyrimidin-5-yl)indolin-2-one]",54.5 nM
2,"Cc1ncc(-c2ccc3c(c2)N(c2cccc4[nH]ccc24)C(=O)C3(C)C)cn1 [Example 33, 1-(1H-Indol-4-yl)-3,3-dimethyl-6-(2-methylpyrimidin-5-yl)indolin-2-one]",742 nM
3,"Cc1ncc(-c2ccc3c(c2)N(c2nccc(N4CCOCC4)n2)C(=O)C3(C)C)cn1 [Example 24, 3,3-Dimethyl-6-(2-methylpyrimidin-5-yl)-1-(4-morpholinopyrimidin-2-yl)indolin-2-one]",321 nM
4,"Cc1ncc(-c2ccc3c(c2)N(c2cncc(N4C(=O)OC[C@@H]4C(C)C)n2)C(=O)C3(C)C)cn1 [Example 22, (S)-3-(6-(3,3-Dimethyl-6-(2-methylpyrimidin-5-yl)-2-oxoindolin-1-yl)pyrazin-2-yl)-4-isopropyloxazolidin-2-one]",387 nM
5,"Cc1ncc(-c2ccc3c(c2)N(c2ccc4cc[nH]c4n2)C(=O)C3(C)C)cn1 [Example 58, 3,3-Dimethyl-6-(2-methylpyrimidin-5-yl)-1-(1H-pyrrolo [2,3-b]pyridin-6-yl)indolin-2-one]",243 nM
6,"Cc1ncc(-c2ccc3c(c2)N(c2cncc(N4CCC(C)(O)CC4)n2)C(=O)C3(C)C)cn1 [Example 11, 1-(6-(4-Hydroxy-4-methylpiperidin-1-yl)pyrazin-2-yl)-3,3-dimethyl-6-(2-methylpyrimidin-5-yl)indolin-2-one]",33.8 nM
7,"Cc1ncc(-c2ccc3c(c2)N(c2cncc(N4C(=O)OC[C@H]4C(C)C)n2)C(=O)C3(C)C)cn1 [Example 21, (R)-3-(6-(3,3-Dimethyl-6-(2-methylpyrimidin-5-yl)-2-oxoindolin-1-yl)pyrazin-2-yl)-4-isopropyloxazolidin-2-one]",238 nM
8,"Cc1ncc(-c2ccc3c(c2)N(c2cncc(N4CCS(=O)(=O)CC4)n2)C(=O)C3(C)C)cn1 [Example 10, 1-(6-(1,1-Dioxidothiomorpholino)pyrazin-2-yl)-3,3-dimethyl-6-(2-methylpyrimidin-5-yl)indolin-2-one]",29.6 nM
9,"Cc1ncc(-c2ccc3c(c2)N(c2cncc(N4CCCS4(=O)=O)n2)C(=O)C3(C)C)cn1 [Example 57, 1-(6-(1,1-Dioxidoisothiazolidin-2-yl)pyrazin-2-yl)-3,3-dimethyl-6-(2-methylpyrimidin-5-yl)indolin-2-one]",60.8 nM
10,"COCCNc1cncc(N2C(=O)C(C)(C)c3ccc(-c4cnc(C)nc4)cc32)n1 [Example 8, 1-[6-(2-Methoxyethylamino)pyrazin-2-yl]-3,3-dimethyl-6-(2-methylpyrimidin-5-yl)indol-2-one]",87.6 nM
11,"Cc1ncc(-c2ccc3c(c2)N(c2cncc(N4CCC45COC5)n2)C(=O)C3(C)C)cn1 [Example 14, 1-(6-(6-Oxa-1-azaspiro[3.3]heptan-1-yl)pyrazin-2-yl)-3,3-dimethyl-6-(2-methylpyrimidin-5-yl)indolin-2-one]",110 nM
12,"Cc1ncc(-c2ccc3c(c2)N(c2cc4c(cn2)C(C)(C)C(=O)N4)C(=O)C3(C)C)cn1 [Example 43, 6-(3,3-Dimethyl-6-(2-methylpyrimidin-5-yl)-2-oxoindolin-1-yl)-3,3-dimethyl-1H-pyrrolo[3,2-c]pyridin-2(3H)-one]",385 nM
13,"CC(=O)Nc1cncc(N2C(=O)C(C)(C)c3ccc(-c4cnc(C)nc4)cc32)n1 [Example 5, N-(6-(3,3-Dimethyl-6-(2-methylpyrimidin-5-yl)-2-oxoindolin-1-yl)pyrazin-2-yl)acetamide]",48 nM
14,"Cc1ncc(-c2ccc3c(c2)N(c2cncc4[nH]ccc24)C(=O)C3(C)C)cn1 [Example 34, 3,3-Dimethyl-6-(2-methylpyrimidin-5-yl)-1-(1H-pyrrolo[2,3-c]pyridin-4-yl)indolin-2-one]",838 nM
15,"Cc1ncc(-c2ccc3c(c2)N(c2cncc(N4CCC(O)CC4)n2)C(=O)C3(C)C)cn1 [Example 9, 1-(6-(4-Hydroxypiperidin-1-yl)pyrazin-2-yl)-3,3-dimethyl-6-(2-methylpyrimidin-5-yl)indolin-2-one]",21.8 nM
